From patent publication US12024490B2, “Polymeric metal chelating compositions and methods of preparing same for controlling growth and activities of living cells and organisms for therapeutic use in treating diseases in animals, fish or humans” (CHELATION PARTNERS INCORPORATED, priority 2016, dated 2024)
≈ marks a conversion by molar mass, not a printed value.

System: Staphylococcus aureus
Assay: Growth inhibition (MIC) in RPMI 1640, Staphylococcus aureus
Format: cell-based
Conditions: method of Example 6, read-out: MIC for S. aureus
Experimental: Chelating compositions were assessed for their biological activity in vitro by determination of their growth inhibitory activity for Staphylococcus aureus (strain 038, a clinical isolate from a corneal infection obtained from Dr. Mark Wilcox, University New South Wales, Australia or strain ATCC 43300, a prototypical clinical isolate and reference strain obtained from the American Type Culture Collection) and Candida albicans (SC5314, a prototypical clinical isolate and reference strain obtained from the American Type Culture Collection or strain 3969 a clinical isolate obtained from the Queen Elizabeth II hospital, Halifax, Canada). The microorganisms were grown in RPMI 1640 culture medium and tested in fresh aliquots of RPMI 1640 medium or in medium that had been partially deferrated by the method of Holbein and Mira (Holbein B. E, Mira de Orduña R. 2010, FEMS Microbiol Lett. 307(1):19-24, herein incorporated by reference) to allow testing at low Fe levels or with iron re-added at known concentrations to this deferrated medium. Growth at 30° C. was measured by optical density when the test samples were incubated in tubes or visually when growth was tested in microtitre dish wells. […]

MIC: 125 µg/mL (≈ 529 µM)
Structure (SMILES): C=C(C)C(=O)NCCn1ccc(=O)c(O)c1C [MAHMP, 3-hydroxy-1-(β-methacrylamidoethyl)-2-methyl-4(1H)-pyridinone]
